How the values were obtained:
Assay type in all cases: in vivo
[1] = tested on: Beet Armyworm (Spodoptera exigua) ("BAW"), second instar larvae; assay: Bioassay on beet armyworm (BAW), 128-well diet tray assay; details: Spodoptera exigua, read-out: BAW (Biological Results, rating)
How it was run: (§1)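 Second-instar larvae on diet in 128-well trays, covered and held at 25° C, 14:10 light-dark, for five to seven days. Percent mortality scored per well and averaged over eight wells; activity reported as a rating category.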

[2] = tested on: Cabbage Looper (Trichoplusia ni) ("CL"), second instar larvae; assay: Bioassay on cabbage looper (CL), 128-well diet tray assay; details: Trichoplusia ni, read-out: CL (Biological Results, rating)
How it was run: as §1

[3] = tested on: Green Peach Aphid ("GPA") (Myzus persicae), wingless adult and nymph stages; assay: Bioassay on green peach aphid (GPA), foliar spray on infested cabbage seedlings; details: Myzus persicae, foliar, 72 h, read-out: GPA (Biological Results, rating)
Experimental: Certain molecules disclosed in this document were tested against GPA using procedures described in the following example. In the reporting of the results, the “GPA Rating Table” was used (See Table Section).
Cabbage seedlings grown in 3-inch pots, with 2-3 small (3-5 cm) true leaves, were used as test substrate. The seedlings were infested with 20-50 GPA (wingless adult and nymph stages) one day prior to chemical application. Four pots with individual seedlings were used for each treatment. Test compounds (2 mg) were dissolved in 2 mL of acetone/methanol (1:1) solvent, forming stock solutions of 1000 ppm test compound. […] A hand-held aspirator-type sprayer was used for spraying a solution to both sides of […] leaves until runoff. Reference plants (solvent check) were sprayed with the diluent only containing 20% by volume of acetone/methanol (1:1) solvent. Treated plants were held in a holding room for three days at approximately 25° C. and ambient relative humidity (RH) prior to grading. Evaluation was conducted by counting the number of live aphids per plant under a microscope.
Corrected % Control=100*(X−Y)/X • where • X=No. of live aphids on solvent check plants and • Y=No. of live aphids on treated plants
The results are indicated in the table entitled “Table ABC: Biological Results” (See Table Section).

Structure (SMILES) | pest or weed control at 50 µg/cm2 [1] [%] | pest or weed control at 50 µg/cm2 [2] [%] | pest or weed control at 200 µg/mL [3] [%]
Cc1ccc(C(F)(F)F)c(N2C(=O)C(Cl)S/C2=N\C(=O)NCC(F)c2ccc(-c3ncn(-c4ccc(OC(F)(F)F)cc4)n3)cc2)c1 (stereo not drawn) [Compound H7] | 50 to 100 | 50 to 100 | 0 to 80
COc1ccc(CC(F)(F)F)c(N2C(=O)CS/C2=N\C(=O)NCC(F)c2ccc(-c3ncn(-c4ccc(OC(F)(F)F)cc4)n3)cc2)c1 (stereo not drawn) [Compound H14] | 50 to 100 | 50 to 100 | 0 to 80
Cc1ccc(C(C)C)c(N2C(=O)CS/C2=N\C(=O)Nc2ccc(-c3ncn(-c4ccc(OC(F)(F)F)cc4)n3)cc2C)c1 [Compound J1, (Z)-1-(3-(2-isopropyl-5-methylphenyl)-4-oxothiazolidin-2-ylidene)-3-(2-methyl-4-(1-(4-(trifluoromethoxy)phenyl)-1H-1,2,4-triazol-3-yl)phenyl)urea] | 50 to 100 | 50 to 100 | 0 to 80
Cc1ccc(C(C)C)c(N2C(=O)CS/C2=N\C(=O)Nc2ccc(-c3ncn(-c4ccc(OC(F)(F)F)cc4)n3)cc2F)c1 [Compound J19, (Z)-1-(2-Fluoro-4-(1-(4-(trifluoromethoxy)phenyl)-1H-1,2,4-triazol-3-yl)phenyl)-3-(3-(2-isopropyl-5-methylphenyl)-4-oxothiazolidin-2-ylidene)urea] | 50 to 100 | 50 to 100 | 0 to 80
Cc1ccc(C(C)C)c(N2C(=O)C(Cl)S/C2=N\C(=O)Nc2ccc(-c3ncn(-c4ccc(OC(F)(F)F)cc4)n3)cc2F)c1 (stereo not drawn) [Compound J32, (Z)-1-(5-chloro-3-(2-isopropyl-5-methylphenyl)-4-oxothiazolidin-2-ylidene)-3-(2-fluoro-4-(1-(4-(trifluoromethoxy)phenyl)-1H-1,2,4-triazol-3-yl)phenyl)urea] | 50 to 100 | 50 to 100 | 0 to 80
Cc1ccc(OCCC(F)(F)F)c(N2C(=O)CS/C2=N\C(=O)Nc2ccc(-c3ncn(-c4ccc(OC(F)(F)F)cc4)n3)cc2F)c1 [Compound J35, (Z)-1-(2-Fluoro-4-(1-(4-(trifluoromethoxy)phenyl)-1H-1,2,4-triazol-3-yl)phenyl)-3-(3-(5-methyl-2-(3,3,3-trifluoropropoxy)phenyl)-4-oxothiazolidin-2-ylidene)urea] | 50 to 100 | 50 to 100 | 0 to 80
COCc1ccc(C)cc1N1C(=O)CS/C1=N\C(=O)Nc1ccc(-c2ncn(-c3ccc(OC(F)(F)F)cc3)n2)cc1F [Compound J66, (Z)-1-(2-Fluoro-4-(1-(4-(trifluoromethoxy)phenyl)-1H-1,2,4-triazol-3-yl)phenyl)-3-(3-(2-(methoxymethyl)-5-methylphenyl)-4-oxothiazolidin-2-ylidene)urea] | 50 to 100 | 50 to 100 | 0 to 80
CCc1cc(-c2ncn(-c3ccc(OC(F)(F)F)cc3)n2)ccc1NC(=O)/N=C1\SCC(=O)N1c1cc(C)ccc1C(C)C [Compound J70, (Z)-1-(2-Ethyl-4-(1-(4-(trifluoromethoxy)phenyl)-1H-1,2,4-triazol-3-yl)phenyl)-3-(3-(2-isopropyl-5-methylphenyl)-4-oxothiazolidin-2-ylidene)urea] | 50 to 100 | 50 to 100 | 0 to 80
CCc1cc(-c2ncn(-c3ccc(OC(F)(F)F)cc3)n2)ccc1NC(=O)/N=C1\SCC(=O)N1c1cc(OC)ccc1C(C)C [Compound J71, (Z)-1-(2-Ethyl-4-(1-(4-(trifluoromethoxy)phenyl)-1H-1,2,4-triazol-3-yl)phenyl)-3-(3-(2-isopropyl-5-methoxyphenyl)-4-oxothiazolidin-2-ylidene)urea] | 50 to 100 | 50 to 100 | 0 to 80
CCc1cc(-c2ncn(-c3ccc(OC(F)(F)F)cc3)n2)ccc1NC(=O)/N=C1\SCC(=O)N1c1cc(C)ccc1COC [Compound J72, (Z)-1-(2-Ethyl-4-(1-(4-(trifluoromethoxy)phenyl)-1H-1,2,4-triazol-3-yl)phenyl)-3-(3-(2-(methoxymethyl)-5-methylphenyl)-4-oxothiazolidin-2-ylidene)urea] | 50 to 100 | 50 to 100 | 0 to 80
CCc1cc(-c2ncn(-c3ccc(OC(F)(F)F)cc3)n2)ccc1NC(=O)/N=C1\SCC(=O)N1c1cc(C)ccc1OCCC(F)(F)F [Compound J73, (Z)-1-(2-Ethyl-4-(1-(4-(trifluoromethoxy)phenyl)-1H-1,2,4-triazol-3-yl)phenyl)-3-(3-(5-methyl-2-(3,3,3-trifluoropropoxy)phenyl)-4-oxothiazolidin-2-ylidene)urea] | 50 to 100 | 50 to 100 | 0 to 80
CCc1cc(-c2ncn(-c3ccc(OC(F)(F)F)cc3)n2)ccc1NC(=O)/N=C1\SCC(=O)N1c1cc(C)ccc1C(C)OC (stereo not drawn) [Compound J74, (Z)-1-(2-Ethyl-4-(1-(4-(trifluoromethoxy)phenyl)-1H-1,2,4-triazol-3-yl)phenyl)-3-(3-(2-(1-methoxyethyl)-5-methylphenyl)-4-oxothiazolidin-2-ylidene)urea] | 50 to 100 | 50 to 100 | 0 to 80
CCc1cc(-c2ncn(-c3ccc(OC(F)(F)F)cc3)n2)ccc1NC(=O)/N=C1\SCC(=O)N1c1cc(C)ccc1OCC(F)(F)F [Compound J75, (Z)-1-(2-Ethyl-4-(1-(4-(trifluoromethoxy)phenyl)-1H-1,2,4-triazol-3-yl)phenyl)-3-(3-(5-methyl-2-(2,2,2-trifluoroethoxy)phenyl)-4-oxothiazolidin-2-ylidene)urea] | 50 to 100 | 50 to 100 | 0 to 80
CC(=O)c1ccc(C(C)C)c(N2C(=O)CS/C2=N\C(=O)Nc2ccc(-c3ncn(-c4ccc(OC(F)(F)F)cc4)n3)cc2F)c1 [Compound J77, (Z)-1-(3-(5-Acetyl-2-isopropylphenyl)-4-oxothiazolidin-2-ylidene)-3-(2-fluoro-4-(1-(4-(trifluoromethoxy)phenyl)-1H-1,2,4-triazol-3-yl)phenyl)urea] | 50 to 100 | 50 to 100 | 0 to 80
CC(C)c1ccccc1N1C(=O)CS/C1=N\C(=O)Nc1ccc(-c2ncn(-c3ccc(OC(F)(F)F)cc3)n2)cc1F [Compound J86, (Z)-1-(2-Fluoro-4-(1-(4-(trifluoromethoxy)phenyl)-1H-1,2,4-triazol-3-yl)phenyl)-3-(3-(2-isopropylphenyl)-4-oxothiazolidin-2-ylidene)urea] | 50 to 100 | 50 to 100 | 0 to 80
COC(C)c1ccccc1N1C(=O)CS/C1=N\C(=O)Nc1ccc(-c2ncn(-c3ccc(OC(F)(F)F)cc3)n2)cc1F (stereo not drawn) [Compound J87, (Z)-1-(2-Fluoro-4-(1-(4-(trifluoromethoxy)phenyl)-1H-1,2,4-triazol-3-yl)phenyl)-3-(3-(2-(1-methoxyethyl)phenyl)-4-oxothiazolidin-2-ylidene)urea] | 50 to 100 | 50 to 100 | 0 to 80
N#Cc1ccc(OCCC(F)(F)F)c(N2C(=O)CS/C2=N\C(=O)Nc2ccc(-c3ncn(-c4ccc(OC(F)(F)F)cc4)n3)cc2F)c1 [Compound J103, (Z)-1-(3-(5-Cyano-2-(3,3,3-trifluoropropoxy)phenyl)-4-oxothiazolidin-2-ylidene)-3-(2-fluoro-4-(1-(4-(trifluoromethoxy)phenyl)-1H-1,2,4-triazol-3-yl)phenyl)urea] | 50 to 100 | 50 to 100 | 0 to 80
COC(=O)c1ccc(C(C)C)c(N2C(=O)CS/C2=N\C(=O)Nc2ccc(-c3ncn(-c4ccc(OC(F)(F)F)cc4)n3)cc2F)c1 [Compound J104, Methyl (Z)-3-(2-(((2-fluoro-4-(1-(4-(trifluoromethoxy)phenyl)-1H-1,2,4-triazol-3-yl)phenyl)carbamoyl)imino)-4-oxothiazolidin-3-yl)-4-isopropylbenzoate] | 50 to 100 | 50 to 100 | 0 to 80
CN(C)c1ccc(OCCC(F)(F)F)c(N2C(=O)CS/C2=N\C(=O)Nc2ccc(-c3ncn(-c4ccc(OC(F)(F)F)cc4)n3)cc2F)c1 [Compound J105, (Z)-1-(3-(5-(Dimethylamino)-2-(3,3,3-trifluoropropoxy)phenyl)-4-oxothiazolidin-2-ylidene)-3-(2-fluoro-4-(1-(4-(trifluoromethoxy)phenyl)-1H-1,2,4-triazol-3-yl)phenyl)urea] | 50 to 100 | 50 to 100 | 0 to 80
